pKi: −log10 of the molar value.

In general, pKi refers to −log10 of the Ki, conventionally taken in molar units. Read a high pKi as a low Ki.

In assay [1] the target is dialkylglycine decarboxylase (DGD); WT DGD (Burkholderia cepacia, UniProt P16932, W138F). The assay can be described thus: biochemical.
Assay [2] addresses dialkylglycine decarboxylase (DGD); WT DGD (Burkholderia cepacia, UniProt P16932, M141R/W138F). Description: biochemical.

As to `N[C@@H](C(=O)O)c1ccccc1` [D-phenylglycine], in assay [1], the pKi was 1.30.
Turning to `N[C@H](CCC(=O)O)C(=O)O` [D-glutamate], the pKi in assay [2] was 1.05.

The values above are taken from publication PMC2994807 (Biochemistry, 2010).
